Measured values as given in publication PMC9090415, “Discovery of small molecule inhibitors of Plasmodium falciparum apicoplast DNA polymerase” (Journal of Enzyme Inhibition and Medicinal Chemistry, 2022).

Target: T1, bacteriophage T4 DNA polymerase (Enterobacteria phage T4, UniProt P04415)
T1 construct: made in house
T1 sequence (P04415 1-898): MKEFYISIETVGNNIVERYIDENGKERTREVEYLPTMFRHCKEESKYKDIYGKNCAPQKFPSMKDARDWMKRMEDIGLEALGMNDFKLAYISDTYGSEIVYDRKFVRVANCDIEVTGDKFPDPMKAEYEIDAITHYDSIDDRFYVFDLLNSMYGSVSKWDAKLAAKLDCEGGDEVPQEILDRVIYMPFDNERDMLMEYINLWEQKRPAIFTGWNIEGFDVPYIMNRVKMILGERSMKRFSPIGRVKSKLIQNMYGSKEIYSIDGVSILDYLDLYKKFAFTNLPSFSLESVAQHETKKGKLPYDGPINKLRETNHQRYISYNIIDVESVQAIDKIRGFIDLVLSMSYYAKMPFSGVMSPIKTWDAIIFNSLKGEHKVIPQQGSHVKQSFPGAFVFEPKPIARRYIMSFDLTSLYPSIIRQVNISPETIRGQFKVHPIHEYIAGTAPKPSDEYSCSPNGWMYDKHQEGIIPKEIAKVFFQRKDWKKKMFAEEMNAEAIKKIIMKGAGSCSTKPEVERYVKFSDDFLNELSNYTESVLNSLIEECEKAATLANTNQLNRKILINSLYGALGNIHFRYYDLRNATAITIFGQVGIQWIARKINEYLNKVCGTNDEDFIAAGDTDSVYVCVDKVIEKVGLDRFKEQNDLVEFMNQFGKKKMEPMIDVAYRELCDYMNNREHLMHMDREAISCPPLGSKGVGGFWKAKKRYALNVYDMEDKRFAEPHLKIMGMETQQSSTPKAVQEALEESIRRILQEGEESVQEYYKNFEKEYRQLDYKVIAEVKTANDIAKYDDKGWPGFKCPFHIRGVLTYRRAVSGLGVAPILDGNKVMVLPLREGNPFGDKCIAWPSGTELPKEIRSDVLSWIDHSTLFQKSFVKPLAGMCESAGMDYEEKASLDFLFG
Experiment: Counter-screen against bacteriophage T4 DNA polymerase
Assay type: biochemical
Conditions: for % inhibition T4 10' 2.5 / % inhibition T4 10' 5 / % inhibition T4 10' 10 / % inhibition T4 10' 20 / % inhibition T4 10' 40 / % inhibition T4 10' 80: read at 10'; for % inhibition T4 70' 2.5 / % inhibition T4 70' 5 / % inhibition T4 70' 10 / % inhibition T4 70' 20 / % inhibition T4 70' 40 / % inhibition T4 70' 80: read at 70'; for % inhibition T4 130' 2.5 / % inhibition T4 130' 5 / % inhibition T4 130' 10 / % inhibition T4 130' 20 / % inhibition T4 130' 40 / % inhibition T4 130' 80: read at 130'; for % inhibition T4 40' 2.5 / % inhibition T4 40' 5 / % inhibition T4 40' 10 / % inhibition T4 40' 20 / % inhibition T4 40' 40 / % inhibition T4 40' 80: read at 40'; for % inhibition T4 90' 2.5 / % inhibition T4 90' 5 / % inhibition T4 90' 10 / % inhibition T4 90' 20 / % inhibition T4 90' 40 / % inhibition T4 90' 80: read at 90'; for % inhibition T4 180' 2.5 / % inhibition T4 180' 5 / % inhibition T4 180' 10 / % inhibition T4 180' 20 / % inhibition T4 180' 40 / % inhibition T4 180' 80: read at 180'
Procedure, shortened: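 Purified T4 DNA polymerase, a B-family enzyme, served as the counter-screen enzyme. Compounds were tested in dose-response format and IC50 values were derived.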

## Cn1nc(-c2nc(-c3ccccc3)no2)c2c1CCN(C(=O)Cc1cccs1)C2 [Molecule 58, O=C(N1CCc2c(C1)c(nn2C)c1onc(n1)c1ccccc1)Cc1cccs1]
DRC-1, concentration 2.5
  % inhibition T4 10' 2.5: 2%
  % inhibition T4 70' 2.5: -0.863%
  % inhibition T4 130' 2.5: -2.41%
DRC-1, concentration 5
  % inhibition T4 10' 5: 6%
  % inhibition T4 70' 5: 0.684%
  % inhibition T4 130' 5: -0.486%
DRC-1, concentration 10
  % inhibition T4 10' 10: 20%
  % inhibition T4 70' 10: 13%
  % inhibition T4 130' 10: 9%
DRC-1, concentration 20
  % inhibition T4 10' 20: 24%
  % inhibition T4 70' 20: 17%
  % inhibition T4 130' 20: 14%
DRC-1, concentration 40
  % inhibition T4 10' 40: 35%
  % inhibition T4 70' 40: 26%
  % inhibition T4 130' 40: 24%
DRC-1, concentration 80
  % inhibition T4 10' 80: 33%
  % inhibition T4 70' 80: 37%
  % inhibition T4 130' 80: 33%
DRC-2, concentration 2.5
  % inhibition T4 10' 2.5: 2.64%
  % inhibition T4 40' 2.5: 2.18%
  % inhibition T4 90' 2.5: 2.76%
  % inhibition T4 180' 2.5: -1.52%
DRC-2, concentration 5
  % inhibition T4 10' 5: 8%
  % inhibition T4 40' 5: 6.41%
  % inhibition T4 90' 5: 7%
  % inhibition T4 180' 5: 1.9%
DRC-2, concentration 10
  % inhibition T4 10' 10: 17%
  % inhibition T4 40' 10: 17%
  % inhibition T4 90' 10: 17%
  % inhibition T4 180' 10: 13%
DRC-2, concentration 20
  % inhibition T4 10' 20: 20%
  % inhibition T4 40' 20: 22%
  % inhibition T4 90' 20: 21%
  % inhibition T4 180' 20: 15%
DRC-2, concentration 40
  % inhibition T4 10' 40: 23%
  % inhibition T4 40' 40: 27%
  % inhibition T4 90' 40: 24%
  % inhibition T4 180' 40: 20%
DRC-2, concentration 80
  % inhibition T4 10' 80: 20%
  % inhibition T4 40' 80: 25%
  % inhibition T4 90' 80: 22%
  % inhibition T4 180' 80: 20%

## COc1ccccc1CC(=O)N1CCc2c(nc3cc(-c4ccccc4Cl)[nH]n3c2=O)C1 [Molecule 49, COc1ccccc1CC(=O)N1CCc2c(C1)nc1n(c2=O)[nH]c(c1)c1ccccc1Cl]
DRC-1, concentration 2.5
  % inhibition T4 10' 2.5: -1.17%
  % inhibition T4 70' 2.5: -2.29%
  % inhibition T4 130' 2.5: -4%
DRC-1, concentration 5
  % inhibition T4 10' 5: -4%
  % inhibition T4 70' 5: -6%
  % inhibition T4 130' 5: -6%
DRC-1, concentration 10
  % inhibition T4 10' 10: -5.62%
  % inhibition T4 70' 10: -6%
  % inhibition T4 130' 10: -5%
DRC-1, concentration 20
  % inhibition T4 10' 20: -14%
  % inhibition T4 70' 20: -13%
  % inhibition T4 130' 20: -12%
DRC-1, concentration 40
  % inhibition T4 10' 40: -19%
  % inhibition T4 70' 40: -18%
  % inhibition T4 130' 40: -13%
DRC-1, concentration 80
  % inhibition T4 10' 80: -3%
  % inhibition T4 70' 80: -7%
  % inhibition T4 130' 80: -11%
DRC-2, concentration 2.5
  % inhibition T4 10' 2.5: -1%
  % inhibition T4 40' 2.5: -2.7%
  % inhibition T4 90' 2.5: -4%
  % inhibition T4 180' 2.5: -9%
DRC-2, concentration 5
  % inhibition T4 10' 5: -28%
  % inhibition T4 40' 5: -24%
  % inhibition T4 90' 5: -22%
  % inhibition T4 180' 5: -24%
DRC-2, concentration 10
  % inhibition T4 10' 10: -40%
  % inhibition T4 40' 10: -34%
  % inhibition T4 90' 10: -31%
  % inhibition T4 180' 10: -28%
DRC-2, concentration 20
  % inhibition T4 10' 20: -50%
  % inhibition T4 40' 20: -45%
  % inhibition T4 90' 20: -41%
  % inhibition T4 180' 20: -39%
DRC-2, concentration 40
  % inhibition T4 10' 40: -55%
  % inhibition T4 40' 40: -51%
  % inhibition T4 90' 40: -49%
  % inhibition T4 180' 40: -47%
DRC-2, concentration 80
  % inhibition T4 10' 80: -54%
  % inhibition T4 40' 80: -47%
  % inhibition T4 90' 80: -47%
  % inhibition T4 180' 80: -46%

## CCCCC(=O)N1CCc2c(nc3cc(-c4ccccc4Cl)[nH]n3c2=O)C1 [Molecule 37, CCCCC(=O)N1CCc2c(C1)nc1n(c2=O)[nH]c(c1)c1ccccc1Cl]
DRC-2, concentration 2.5
  % inhibition T4 10': 6%
  % inhibition T4 40': 6%
  % inhibition T4 90': 5%
DRC-2, concentration 5
  % inhibition T4 10': -3%
  % inhibition T4 40': -3%
DRC-2, concentration 10
  % inhibition T4 10': 3.42%
  % inhibition T4 40': 3.42%
DRC-2, concentration 20
  % inhibition T4 10': 0.821%
  % inhibition T4 40': 0.821%
DRC-2, concentration 40
  % inhibition T4 10': 4.74%
  % inhibition T4 40': 4.74%
  % inhibition T4 90': 5%
DRC-2, concentration 80
  % inhibition T4 10': 1.57%
  % inhibition T4 40': 1.57%

## Cl.NC(CO)C(=O)NNCc1ccc(O)c(O)c1O (stereo not shown) [KU0260493]
DRC-2, concentration 2.5
  % inhibition T4 10': -17%
  % inhibition T4 90': -11%
DRC-2, concentration 10
  % inhibition T4 10': -11%
DRC-2, concentration 5
  % inhibition T4 180': -17%

## CCCc1ccc(Oc2coc3cc(OC)ccc3c2=O)cc1 [KU0193249]
DRC-1, concentration 2.5
  % inhibition T4 10' 2.5: 1.7455%
  % inhibition T4 70' 2.5: 0.7287%
  % inhibition T4 130' 2.5: -0.4639%
DRC-1, concentration 5
  % inhibition T4 10' 5: -0.5189%
  % inhibition T4 70' 5: -0.7228%
  % inhibition T4 130' 5: -1.759%
DRC-1, concentration 10
  % inhibition T4 10' 10: 7.431%
  % inhibition T4 70' 10: 6.283%
  % inhibition T4 130' 10: 5.142%
DRC-1, concentration 20
  % inhibition T4 10' 20: -2.718%
  % inhibition T4 70' 20: -2.8267%
  % inhibition T4 130' 20: -2.066%
DRC-1, concentration 40
  % inhibition T4 10' 40: 4.024%
  % inhibition T4 70' 40: 4.61%
  % inhibition T4 130' 40: 4.723%
DRC-1, concentration 80
  % inhibition T4 10' 80: -14.455%
  % inhibition T4 70' 80: -10.3998%
  % inhibition T4 130' 80: -9.229%
DRC-2, concentration 2.5
  % inhibition T4 10' 2.5: 9%
  % inhibition T4 40' 2.5: 9%
  % inhibition T4 90' 2.5: 8%
  % inhibition T4 180' 2.5: 1.43%
DRC-2, concentration 5
  % inhibition T4 10' 5: -2.34%
  % inhibition T4 40' 5: -2.34%
  % inhibition T4 90' 5: -2.2%
  % inhibition T4 180' 5: -7%
DRC-2, concentration 10
  % inhibition T4 10' 10: 0.369%
  % inhibition T4 40' 10: 0.369%
  % inhibition T4 90' 10: -0.214%
  % inhibition T4 180' 10: -5%
DRC-2, concentration 20
  % inhibition T4 10' 20: -9%
  % inhibition T4 40' 20: -9%
  % inhibition T4 90' 20: -7%
  % inhibition T4 180' 20: -10%
DRC-2, concentration 40
  % inhibition T4 10' 40: -1.47%
  % inhibition T4 40' 40: -1.47%
  % inhibition T4 90' 40: 0.714%
  % inhibition T4 180' 40: -1.19%
DRC-2, concentration 80
  % inhibition T4 10' 80: -4.57%
  % inhibition T4 40' 80: -4.57%
  % inhibition T4 90' 80: -1.8%
  % inhibition T4 180' 80: -4%

## CN(C)S(=O)(=O)Oc1ccc(-c2noc(-c3ccc(Oc4cc(Cl)cc(Cl)c4)o3)n2)cc1 [KU0263859]
DRC-2, concentration 5
  % inhibition T4 10': 17%
  % inhibition T4 40': 17%
DRC-2, concentration 10
  % inhibition T4 10': 35%
DRC-2, concentration 20
  % inhibition T4 10': 35%
  % inhibition T4 40': 38%
  % inhibition T4 90': 35%
DRC-2, concentration 40
  % inhibition T4 40': 43%
  % inhibition T4 180': 38%
DRC-2, concentration 80
  % inhibition T4 40': 43%
  % inhibition T4 180': 43%

## COc1ccc(C(=O)N2CCc3c(nc4cc(-c5ccccc5Cl)[nH]n4c3=O)C2)cn1 [Molecule 26, COc1ccc(cn1)C(=O)N1CCc2c(C1)nc1n(c2=O)[nH]c(c1)c1ccccc1Cl]
DRC-2, concentration 2.5
  % inhibition T4 10': -4%
  % inhibition T4 40': -4%
DRC-2, concentration 10
  % inhibition T4 10': -17%
  % inhibition T4 180': -10%
DRC-2, concentration 40
  % inhibition T4 40': -23%
  % inhibition T4 180': -17%
DRC-2, concentration 5
  % inhibition T4 90': -10%
DRC-2, concentration 80
  % inhibition T4 90': -23%
  % inhibition T4 180': -17%
